{"source": "paper PMC5218480", "about": "(PLoS ONE, 2017)", "system": "MV-4-11 cells", "assay": "Gene expression microarray analysis (Affymetrix PrimeView) and GSEA", "format": "cell-based, human", "design": "RFU PODN (11730768_x_at) / Fold change /veh PODN (11730768_x_at) / RFU LINC00158 (11744669_a_at) / Fold change /veh LINC00158 (11744669_a_at) / RFU DUSP10 (11751237_a_at) / Fold change /veh DUSP10 (11751237_a_at) / RFU ID3 (11757404_x_at) / Fold change /veh ID3 (11757404_x_at) / RFU PLEKHG5 (11737974_s_at) / Fold change /veh PLEKHG5 (11737974_s_at) / RFU LRRC4B (11730491_at) / Fold change /veh LRRC4B (11730491_at) / RFU GIMAP4 (11747438_a_at) / Fold change /veh GIMAP4 (11747438_a_at) / RFU KRT8 (11758183_x_at) / Fold change /veh KRT8 (11758183_x_at) / RFU CNN1 (11734310_a_at) / Fold change /veh CNN1 (11734310_a_at) / RFU VPS37D (11726825_at) / Fold change /veh VPS37D (11726825_at) / RFU C10orf10 (11716522_x_at) / Fold change /veh C10orf10 (11716522_x_at) / RFU KIR2DL2 /// KIR2DL4 /// KIR2DL5A /// KIR2DL5B /// KIR2DS1 /// KIR2DS2 /// KIR2DS3 /// KIR2DS4 /// KIR3DL3 /// KIR3DL3 /// KIR3DS1 (11738374_at) / Fold change /veh KIR2DL2 /// KIR2DL4 /// KIR2DL5A /// KIR2DL5B /// KIR2DS1 /// KIR2DS2 /// KIR2DS3 /// KIR2DS4 /// KIR3DL3 /// KIR3DL3 /// KIR3DS1 (11738374_at) / RFU C1QL1 (11718748_at) / Fold change /veh C1QL1 (11718748_at) / RFU TMPRSS4 (11747572_a_at) / Fold change /veh TMPRSS4 (11747572_a_at) / RFU HAMP (11756126_x_at) / Fold change /veh HAMP (11756126_x_at) / RFU RNFT2 (11725882_a_at) / Fold change /veh RNFT2 (11725882_a_at) / RFU NR4A2 (11747474_a_at) / Fold change /veh NR4A2 (11747474_a_at) / RFU ABCC12 (11746883_a_at) / Fold change /veh ABCC12 (11746883_a_at) / RFU TMEM136 (11760407_x_at) / Fold change /veh TMEM136 (11760407_x_at) / RFU CLDN22 /// WWC2 (11732394_at) / Fold change /veh CLDN22 /// WWC2 (11732394_at) / RFU HLA-DPB1 (11760878_x_at) / Fold change /veh HLA-DPB1 (11760878_x_at) / RFU SPINT1 (11716480_a_at) / Fold change /veh SPINT1 (11716480_a_at) / RFU GAP43 (11754022_s_at) / Fold change /veh GAP43 (11754022_s_at) / RFU A4GNT (11735810_at) / Fold change /veh A4GNT (11735810_at) / RFU PRB3 (11715151_x_at) / Fold change /veh PRB3 (11715151_x_at) / RFU TUBB4B (11761932_at) / Fold change /veh TUBB4B (11761932_at) / RFU CAPN14 (11732068_a_at) / Fold change /veh CAPN14 (11732068_a_at) / RFU TMCC2 (11721928_a_at) / Fold change /veh TMCC2 (11721928_a_at) / RFU IRGQ (11745062_a_at) / Fold change /veh IRGQ (11745062_a_at) / RFU FAM174B (11720279_a_at) / Fold change /veh FAM174B (11720279_a_at) / RFU TMPRSS4 (11748680_a_at) / Fold change /veh TMPRSS4 (11748680_a_at) / RFU FAM212B (11763350_a_at) / Fold change /veh FAM212B (11763350_a_at) / RFU PLEKHG5 (11743358_a_at) / Fold change /veh PLEKHG5 (11743358_a_at) / RFU ZSCAN30 (11745921_a_at) / Fold change /veh ZSCAN30 (11745921_a_at) / RFU CMKLR1 (11741424_a_at) / Fold change /veh CMKLR1 (11741424_a_at) / RFU LOC101060620 /// MAPK8IP1 (11723275_at) / Fold change /veh LOC101060620 /// MAPK8IP1 (11723275_at) / RFU SPTSSB (11747773_x_at) / Fold change /veh SPTSSB (11747773_x_at) / RFU PRSS12 (11739890_at) / Fold change /veh PRSS12 (11739890_at) / RFU BIN1 (11741810_x_at) / Fold change /veh BIN1 (11741810_x_at) / RFU WNT11 (11732464_a_at) / Fold change /veh WNT11 (11732464_a_at) / RFU C10orf10 (11716521_a_at) / Fold change /veh C10orf10 (11716521_a_at) / RFU C5orf56 (11738089_at) / Fold change /veh C5orf56 (11738089_at) / RFU CYB561 (11721691_x_at) / Fold change /veh CYB561 (11721691_x_at) / RFU ANKRD19P (11752326_a_at) / Fold change /veh ANKRD19P (11752326_a_at) / RFU OR2T12 /// OR2T33 /// OR2T8 (11738714_s_at) / Fold change /veh OR2T12 /// OR2T33 /// OR2T8 (11738714_s_at) / RFU VCAN (11748164_a_at) / Fold change /veh VCAN (11748164_a_at) / RFU JSRP1 (11732532_at) / Fold change /veh JSRP1 (11732532_at) / RFU KRTAP10-11 (11738290_x_at) / Fold change /veh KRTAP10-11 (11738290_x_at) / RFU MYO3A (11730013_a_at) / Fold change /veh MYO3A (11730013_a_at) / RFU EBF3 (11725865_a_at) / Fold change /veh EBF3 (11725865_a_at) / RFU CAMK2N1 (11719241_x_at) / Fold change /veh CAMK2N1 (11719241_x_at) / RFU C5orf56 (11738088_a_at) / Fold change /veh C5orf56 (11738088_a_at) / RFU OLFML3 (11715873_a_at) / Fold change /veh OLFML3 (11715873_a_at) / RFU LOC100653217 /// NTM (11731650_a_at) / Fold change /veh LOC100653217 /// NTM (11731650_a_at) / RFU MAPK11 (11762145_a_at) / Fold change /veh MAPK11 (11762145_a_at) / RFU FIZ1 (11724087_x_at) / Fold change /veh FIZ1 (11724087_x_at) / RFU OASL (11726364_x_at) / Fold change /veh OASL (11726364_x_at) / RFU SOX15 (11748057_x_at) / Fold change /veh SOX15 (11748057_x_at) / RFU CD79A (11719716_a_at) / Fold change /veh CD79A (11719716_a_at) / RFU HIST1H1D (11736915_at) / Fold change /veh HIST1H1D (11736915_at) / RFU CASKIN2 (11723855_a_at) / Fold change /veh CASKIN2 (11723855_a_at) / RFU LOC730098 (11760151_x_at) / Fold change /veh LOC730098 (11760151_x_at) / RFU OR4N2 (11742367_at) / Fold change /veh OR4N2 (11742367_at) / RFU PRRT2 (11749266_a_at) / Fold change /veh PRRT2 (11749266_a_at) / RFU SNX32 (11753110_a_at) / Fold change /veh SNX32 (11753110_a_at) / RFU CDHR5 (11726645_a_at) / Fold change /veh CDHR5 (11726645_a_at) / RFU RCAN1 (11760418_a_at) / Fold change /veh RCAN1 (11760418_a_at) / RFU FAM167A (11723789_a_at) / Fold change /veh FAM167A (11723789_a_at) / RFU FAM26E (11764081_at) / Fold change /veh FAM26E (11764081_at) / RFU ISYNA1 (11749810_s_at) / Fold change /veh ISYNA1 (11749810_s_at) / RFU ACY1 (11761880_at) / Fold change /veh ACY1 (11761880_at) / RFU 11764098_at / Fold change /veh 11764098_at / RFU SAMD14 (11745864_x_at) / Fold change /veh SAMD14 (11745864_x_at) / RFU NPB (11741838_a_at) / Fold change /veh NPB (11741838_a_at) / RFU TMPRSS6 (11731388_a_at) / Fold change /veh TMPRSS6 (11731388_a_at) / RFU KRTAP10-2 (11738614_at) / Fold change /veh KRTAP10-2 (11738614_at) / RFU ARHGAP8 /// PRR5-ARHGAP8 (11727945_x_at) / Fold change /veh ARHGAP8 /// PRR5-ARHGAP8 (11727945_x_at) / RFU KRTAP5-7 /// NADSYN1 (11734609_at) / Fold change /veh KRTAP5-7 /// NADSYN1 (11734609_at) / RFU RASL12 (11751679_a_at) / Fold change /veh RASL12 (11751679_a_at) / RFU CDKN2B (11736163_a_at) / Fold change /veh CDKN2B (11736163_a_at) / RFU PRF1 (11729649_at) / Fold change /veh PRF1 (11729649_at) / RFU, ZNF638 /// ZNF638-IT1 / Fold change vs veh, ZNF638 /// ZNF638-IT1 / RFU, PANK3 / Fold change vs veh, PANK3 / RFU, SH3YL1 / Fold change vs veh, SH3YL1 / RFU, ZEB2 / Fold change vs veh, ZEB2 / RFU, NRIP1 / Fold change vs veh, NRIP1 / RFU, PTTG1IP / Fold change vs veh, PTTG1IP / RFU, CAPN2 / Fold change vs veh, CAPN2 / RFU, MED14 / Fold change vs veh, MED14 / RFU, SNORA58 / Fold change vs veh, SNORA58 / RFU, C1orf63 / Fold change vs veh, C1orf63 / RFU, LRRFIP1 / Fold change vs veh, LRRFIP1 / RFU, NDUFAF7 / Fold change vs veh, NDUFAF7 / RFU, SLC12A2 / Fold change vs veh, SLC12A2 / RFU, IBTK / Fold change vs veh, IBTK / RFU, ESF1 / Fold change vs veh, ESF1 / Fold change vs veh, TMEM50B / RFU, TAOK1 / Fold change vs veh, TAOK1 / RFU, ACBD3 / Fold change vs veh, ACBD3 / RFU, TMA16 / Fold change vs veh, TMA16 / RFU, RWDD3 / Fold change vs veh, RWDD3 / RFU, BCAT1 / Fold change vs veh, BCAT1 / RFU, EDEM3 / Fold change vs veh, EDEM3 / RFU, TMEM33 / Fold change vs veh, TMEM33 / RFU, WDR75 / Fold change vs veh, WDR75 / RFU, AHCTF1 / Fold change vs veh, AHCTF1 / RFU, TFRC / Fold change vs veh, TFRC / RFU, ZDHHC17 / Fold change vs veh, ZDHHC17 / RFU, NOM1 / Fold change vs veh, NOM1 / RFU, ARL8B / Fold change vs veh, ARL8B / RFU, ZBTB11 / Fold change vs veh, ZBTB11 / RFU, TAMM41 / Fold change vs veh, TAMM41 / RFU, KIAA1704 /// LOC100996395 / Fold change vs veh, KIAA1704 /// LOC100996395 / RFU, ING1 / Fold change vs veh, ING1 / RFU, TRMT61B / Fold change vs veh, TRMT61B / RFU, FUBP3 / Fold change vs veh, FUBP3 / RFU, TP53 / Fold change vs veh, TP53 / RFU, TNKS2 / Fold change vs veh, TNKS2 / RFU, ZFP14 / Fold change vs veh, ZFP14 / RFU, ACTR2 / Fold change vs veh, ACTR2 / RFU, PPP3R1 / Fold change vs veh, PPP3R1 / RFU, PIK3R1 / Fold change vs veh, PIK3R1 / RFU, HNRNPA1 / Fold change vs veh, HNRNPA1 / RFU, RNF170 / Fold change vs veh, RNF170 / RFU, ZNF28 / Fold change vs veh, ZNF28 / RFU, RNGTT / Fold change vs veh, RNGTT / RFU, OGT / Fold change vs veh, OGT / RFU, BRD1 / Fold change vs veh, BRD1 / RFU, MARS / Fold change vs veh, MARS / RFU, ZNF655 / Fold change vs veh, ZNF655 / RFU, FAHD1 / Fold change vs veh, FAHD1 / RFU, BDP1 / Fold change vs veh, BDP1 / RFU, LRRCC1 / Fold change vs veh, LRRCC1 / RFU, ARID1A / Fold change vs veh, ARID1A / RFU, ZNF146 / Fold change vs veh, ZNF146 / RFU, ZNF330 / Fold change vs veh, ZNF330 / RFU, GPN3 / Fold change vs veh, GPN3 / RFU, C9orf123 / Fold change vs veh, C9orf123 / RFU, N4BP2L2 / Fold change vs veh, N4BP2L2 / RFU, ARFIP1 / Fold change vs veh, ARFIP1 / RFU, FAM179B / Fold change vs veh, FAM179B / RFU, BCL10 / Fold change vs veh, BCL10 / RFU, UHRF1BP1L / Fold change vs veh, UHRF1BP1L / RFU, BET1 / Fold change vs veh, BET1 / RFU, CNOT2 / Fold change vs veh, CNOT2 / RFU, ZNF268 / Fold change vs veh, ZNF268 / Fold change vs veh, ZNF507 / RFU, DGCR2 / Fold change vs veh, DGCR2 / RFU, WDSUB1 / Fold change vs veh, WDSUB1 / Fold change vs veh, HSP90B1 /// MIR3652 / RFU, ADSS / Fold change vs veh, ADSS / RFU, GK / Fold change vs veh, GK / RFU, ZNF148 / Fold change vs veh, ZNF148 / RFU, TAF9 / Fold change vs veh, TAF9 / RFU, SLC1A5 / Fold change vs veh, SLC1A5 / RFU, SLMO2 / Fold change vs veh, SLMO2 / RFU, ABCC4 / Fold change vs veh, ABCC4 / RFU, LOC101060439 /// RAP1B / Fold change vs veh, LOC101060439 /// RAP1B / RFU, RFX7 / Fold change vs veh, RFX7 / RFU, GTPBP10 / Fold change vs veh, GTPBP10 / RFU, CNEP1R1 / Fold change vs veh, CNEP1R1 / RFU, BIVM-ERCC5 /// ERCC5 / Fold change vs veh, BIVM-ERCC5 /// ERCC5 / RFU, ILF3 / Fold change vs veh, ILF3 / RFU 11762660_at / Fold change /veh 11762660_at / RFU VCAN (11757783_s_at) / Fold change /veh VCAN (11757783_s_at) / RFU DDX43 (11728927_at) / Fold change /veh DDX43 (11728927_at) / RFU KRT8 (11758188_x_at) / Fold change /veh KRT8 (11758188_x_at) / RFU NKD1 (11759106_at) / Fold change /veh NKD1 (11759106_at) / RFU SRD5A1 (11742802_a_at) / Fold change /veh SRD5A1 (11742802_a_at) / RFU TPSAB1 /// TPSB2 (11721975_s_at) / Fold change /veh TPSAB1 /// TPSB2 (11721975_s_at) / RFU GSTM3 (11746129_a_at) / Fold change /veh GSTM3 (11746129_a_at) / RFU IL23R (11737362_x_at) / Fold change /veh IL23R (11737362_x_at) / RFU TMEM51 (11727254_a_at) / Fold change /veh TMEM51 (11727254_a_at) / RFU PIWIL2 (11732686_x_at) / Fold change /veh PIWIL2 (11732686_x_at) / RFU ORM1 (11744905_x_at) / Fold change /veh ORM1 (11744905_x_at) / RFU CCDC152 (11743942_at) / Fold change /veh CCDC152 (11743942_at) / RFU ECM1 (11717891_a_at) / Fold change /veh ECM1 (11717891_a_at) / RFU IL23R (11748794_a_at) / Fold change /veh IL23R (11748794_a_at) / RFU TNFAIP8L3 (11732012_x_at) / Fold change /veh TNFAIP8L3 (11732012_x_at) / RFU MBOAT4 (11741988_at) / Fold change /veh MBOAT4 (11741988_at) / RFU 11764193_at / Fold change /veh 11764193_at / RFU TMEM53 (11763286_at) / Fold change /veh TMEM53 (11763286_at) / RFU MAGEB2 (11727129_at) / Fold change /veh MAGEB2 (11727129_at) / RFU TMEM200A (11744735_a_at) / Fold change /veh TMEM200A (11744735_a_at) / RFU CCDC152 (11751479_a_at) / Fold change /veh CCDC152 (11751479_a_at) / RFU FAM211A (11726209_a_at) / Fold change /veh FAM211A (11726209_a_at) / RFU RGS16 (11746705_a_at) / Fold change /veh RGS16 (11746705_a_at) / RFU VCAN (11755009_s_at) / Fold change /veh VCAN (11755009_s_at) / RFU RHOB (11743442_s_at) / Fold change /veh RHOB (11743442_s_at) / RFU RGS16 (11720943_a_at) / Fold change /veh RGS16 (11720943_a_at) / RFU RGS16 (11720944_at) / Fold change /veh RGS16 (11720944_at) / RFU, VPS4B / Fold change vs veh, VPS4B / RFU, CREB1 / Fold change vs veh, CREB1 / RFU, DNAJC13 / Fold change vs veh, DNAJC13 / RFU, GNAQ / Fold change vs veh, GNAQ / RFU, CDK5R1 / Fold change vs veh, CDK5R1 / RFU, ZRANB3 / Fold change vs veh, ZRANB3 / RFU, CUL4A / Fold change vs veh, CUL4A / RFU, CCNY / Fold change vs veh, CCNY / RFU, UFL1 / Fold change vs veh, UFL1 / RFU, COG3 / Fold change vs veh, COG3 / RFU, DIAPH2 / Fold change vs veh, DIAPH2 / RFU, SKA2 / Fold change vs veh, SKA2 / RFU, AFF3 / Fold change vs veh, AFF3 / RFU, LMF1 / Fold change vs veh, LMF1 / RFU, IPO11 / Fold change vs veh, IPO11 / RFU, DFFB / Fold change vs veh, DFFB / RFU, FOXP1 / Fold change vs veh, FOXP1 / RFU, CARD8 / Fold change vs veh, CARD8 / RFU, STRN3 / Fold change vs veh, STRN3 / RFU, ADK / Fold change vs veh, ADK / RFU, RASSF2 / Fold change vs veh, RASSF2 / RFU, WIPF1 / Fold change vs veh, WIPF1 / RFU, LARP1B / Fold change vs veh, LARP1B / RFU, RASA1 / Fold change vs veh, RASA1 / RFU, RB1 / Fold change vs veh, RB1 / RFU, PPFIA1 / Fold change vs veh, PPFIA1 / RFU, MAT2A / Fold change vs veh, MAT2A / RFU, CCT5 / Fold change vs veh, CCT5 / RFU, WDR92 / Fold change vs veh, WDR92 / RFU, CUX1 / Fold change vs veh, CUX1 / RFU, TTC7A / Fold change vs veh, TTC7A / RFU, TMEM135 / Fold change vs veh, TMEM135 / RFU, DEPTOR / Fold change vs veh, DEPTOR / RFU, CPM / Fold change vs veh, CPM / RFU, DNAJB6 / Fold change vs veh, DNAJB6 / RFU, CACNA2D3 / Fold change vs veh, CACNA2D3 / RFU, DTX4 / Fold change vs veh, DTX4 / RFU, TFCP2 / Fold change vs veh, TFCP2 / RFU, GMCL1 /// GMCL1P1 / Fold change vs veh, GMCL1 /// GMCL1P1 / RFU, AEBP2 / Fold change vs veh, AEBP2 / RFU, SNHG1 /// SNORD22 /// SNORD25 /// SNORD26 /// SNORD27 /// SNORD28 /// SNORD29 /// SNORD31 / Fold change vs veh, SNHG1 /// SNORD22 /// SNORD25 /// SNORD26 /// SNORD27 /// SNORD28 /// SNORD29 /// SNORD31 / Fold change (Aza/veh), C12orf56 (ProbeSet 11735607_a_at) / Fold change (ACY-1035/veh), C12orf56 (ProbeSet 11735607_a_at) / Fold change (Aza/veh), FGFR1OP (ProbeSet 11751329_s_at) / Fold change (ACY-1035/veh), FGFR1OP (ProbeSet 11751329_s_at) / Fold change (Aza/veh), VPS36 (ProbeSet 11739960_a_at) / Fold change (ACY-1035/veh), VPS36 (ProbeSet 11739960_a_at) / RFU SYPL1 (11715823_x_at) / Fold change /veh SYPL1 (11715823_x_at) / RFU IGFBP7 (11715501_s_at) / Fold change /veh IGFBP7 (11715501_s_at) / RFU REEP3 (11722064_at) / Fold change /veh REEP3 (11722064_at) / RFU IGLL1 (11728026_x_at) / Fold change /veh IGLL1 (11728026_x_at): dose or concentration left out as unconfirmed", "conditions": "ProbeSet 11749551_a_at; LIST B"}
{"smiles": "Nc1ncn([C@@H]2O[C@H](CO)[C@@H](O)[C@H]2O)c(=O)n1", "note": "[azacitidine]", "values": [{"measurement": "RFU, RNGTT", "result": 56.67, "unit": "RFU"}]}
